From US5334716A, “Heterocyclic derivatives” (Fujisawa Pharmaceutical Co., Ltd., priority 1991, dated 1994)

target: prostatic testosterone 5α-reductase; test: Inhibitory activity on testosterone 5α-reductase in rats; type: biochemical, rat (Spraque-Dawley); settings: rat ventral prostate 5α-reductase suspension, 3H-testosterone 2.2×10^-9 M, 50 μM NADPH, pH 6.5, 37° C., 30 minutes
Text: [2] Inhibitory activity on testosterone 5α-reductase in rats
1,2,6,7-^3 H-Testosterone (85-105 Ci/mmol) is a mixture of 1,2,6,7-^3 H-testosterone and testosterone which includes 85-105 Ci of 1,2,6,7-^3 H-testosterone per mmol of testosterone and is purchased from New England Nuclear, Boston, Mass., U.S.A.
Aquazol-2 (Aquazol-2 Universal LSC Cocktail): trademark, purchased from New England Nuclear, Boston, Mass., U.S.A. ii) Preparation of prostatic testosterone 5α-reductase
Mature Spraque-Dawley male rats (7-8 weeks old) were sacrificed by diethyl ether. The ventral prostates were dissected to be free of their capsules and their combined volume was measured by displacement in several milliliters of ice-cold medium A (0.32M sucrose, 0.1 mM dithiothreitol and 20 mM sodium phosphate, pH 6.5). Unless specified, all the following procedures were carried out at 0°-4° C. The prostates were drained, minced, and then homogenized in 3-4 tissue volumes of medium A with Pyrex-glass homogenizer. The homogenate was fractioned by differential centrifugations at […]. The resulting pellets were resuspended in medium A. The suspension (20-30 mg protein/ml) was stored at -80° C. […]
iii) Testosterone 5α-reductase assay
The reaction solution contains 1 mM dithiothreitol, 40 mM sodium phosphate pH 6.5, 50 μM NADPH, 1,2,6,7-^3 H-testosterone/testosterone (2.2×10^-9 M) and the suspension prepared above (0.8 mg of protein) in a total volume of 565 μl. Test Compound was added in 10 μl of 10% ethanol whereas control tubes received the same volume of 10% ethanol. The reaction was started with the addition of the enzyme suspension. After incubation at 37° C. for 30 minutes, the reaction was extracted with 1 ml of ethyl acetate. Fifty μl of ethyl acetate phase was chromatographed on a Merck silica plastic sheet Kieselgel 60 F254, using ethyl acetate: cyclohexane (1:1) as the developing solvent system. The plastic sheet was air dried and cut the testosterone and the 5α-dihydrotestosterone areas. The radioactivity was counted in 5 ml of Aquazol-2 in Packard scintillation counter (PACKARD TRI - CARB 4530), and an inhibitory ratio was calculated.

Row | SMILES | IC50
1 | CCC(Oc1ccc(C(=O)c2cc(CCCC(=O)O)n3ccccc23)cc1)c1ccc(CC(C)C)cc1 (centres unmarked) [(4), 4-[1-[4-[1-(4-Isobutylphenyl)propyloxy]benzoyl]indolizin-3-yl]butyric acid] | 0.55 nM
2 | CC(C)Cc1ccc(C(Oc2cccc(C(=O)c3cc(CCCC(=O)O)c4ccccn34)c2)c2ccc(CC(C)C)cc2)cc1 [(3), 4-[3-[3-[Bis(4-isobutylphenyl)methoxy]benzoyl]indolizin-1-yl]butyric acid] | 6.7 nM
3 | CCCCC(Oc1ccc(C(=O)c2cc(CCCC(=O)O)n3ccccc23)cc1)c1ccc(CC(C)C)cc1 (centres unmarked) [(5), 4-[1-[4-[1-(4-Isobutylphenyl)pentyloxy]benzoyl]indolizin-3-yl]butyricacid] | 1.8 nM
4 | CC(C)Cc1ccc(C(Nc2cccc(C(=O)c3cc(CCCC(=O)O)c4ccccn34)c2)c2ccc(CC(C)C)cc2)cc1 [Compound (1), 4-[3-[3-[Bis(4-isobutylphenyl)methylamino]benzoyl]indolizin-1-yl]butyric a cid] | 2.3 nM
5 | CC(C)Cc1ccc(C(Nc2ccc(C(=O)c3cc(CCCC(=O)O)n4ccccc34)cc2)c2ccc(CC(C)C)cc2)cc1 [(2), 4-[1-[4-[Bis(4-isobutylphenyl)methylamino]benzoyl]indolizin-3-yl]butyric a cid] | 0.44 nM
